Measurements: patent publication US10221163B2 (priority 2015, dated 2019)
Read-outs that look alike come from different tables or passages of the source.

Legend:
[1] = test system: Pseudomonas aeruginosa efflux+ (MB9798), IMP-1; format: cell-based; parameters: Concentration of metallo-β-lactamase inhibitor which restores susceptibility of efflux + (MB9798) strain to imipenem: unit not given here; conditions: C, D serine β-lactamase inhibitor closely related to relebactam; for Concentration of metallo-β-lactamase inhibitor which restores susceptibility of efflux + (MB9798) strain to imipenem: imipenem at 2 μg/mL, in the presence of a class A; for P. aeruginosa expressing IMP-1, efflux + (MB9798) MITC95: concentration restoring susceptibility to imipenem at 2 μg/mL in the presence of a class A
In short: (§1)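 Microbroth MIC tests in PAO1-background strains with fixed imipenem and/or ceftazidime, usually at the CLSI breakpoint, plus fixed class A/C β-lactamase inhibitor against AmpC. MBL inhibitor titrated; concentration restoring susceptibility recorded and compared as fold difference between efflux+ MB9798 and efflux− MB9799.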

[2] = test system: Pseudomonas aeruginosa MB9798 vs MB9799
In short: as §1

VIM-1 = VIM-1 (Pseudomonas aeruginosa (strain ATCC 15692 / DSM 22644 / CIP 104116 / JCM 14847 / LMG 12228 / 1C / PRS 101 / PAO1), UniProt A0A0F7KYQ8); assay: biochemical; conditions: CCF2-FA substrate, 30 pM enzyme, 2 hours at 25° C.
In short: (§2)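 Fluorescence assay of metallo-β-lactamase activity using CCF2-FA, a cephalosporin-linked 7-hydroxycoumarin–fluorescein substrate. Inhibitor, enzyme and substrate were incubated together for 2 hours at 25° C. IC50 came from a 4-parameter fit of inhibition versus inhibitor concentration.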

[3] = test system: Pseudomonas aeruginosa efflux− (MB9799), IMP-1; format: cell-based; conditions: C, D serine β-lactamase inhibitor closely related to relebactam; for Concentration of metallo-β-lactamase inhibitor which restores susceptibility of efflux − (MB9799) strain to imipenem: imipenem at 2 μg/mL, in the presence of a class A; for P. aeruginosa expressing IMP-1, efflux − (MB9799) MITC95: concentration restoring susceptibility to imipenem at 2 μg/mL in the presence of a class A
In short: as §1

IMP-1 = IMP-1 (Serratia marcescens, UniProt P52699); assay: biochemical; format: biochemical; conditions: fluorescence assay, CCF2-FA substrate, 2 pM enzyme, 2 hours at 25° C.; read-out: IMP-1 IC50
In short: as §2

NDM-1 = NDM-1 (Klebsiella pneumoniae, UniProt C7C422); assay: biochemical; format: biochemical; conditions: fluorescence assay, CCF2-FA substrate, 1 pM enzyme, 2 hours at 25° C.; read-out: NDM-1 IC50
In short: as §2

[4] = test system: Escherichia coli expressing NDM-1 (CLB30005, CLB30016); format: cell-based; conditions: with imipenem 1 μg/ml; for Escherichia coli MITC95: NDM-1 strain
In short: (§3)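 Clinical strains grown overnight on blood agar at 35°C, colonies suspended in saline, diluted 1:100 into 1.1×CAMHB. Test compound titrated with imipenem at 1 μg/ml; incubated 22–24 h at 35°C, growth read by absorbance.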

[5] = test system: Serratia marcescens expressing IMP-1 (CL5741); format: cell-based; conditions: for Serratia marcescens MITC95: IMP-1 strain CL5741, with imipenem 1 μg/ml; for Serratia marcescens expressing IMP-1 (CL5741) MITC95: with imipenem 1 μg/ml
In short: as §3

[6] = test system: Klebsiella pneumoniae expressing VIM-1 (IHMA599644); format: cell-based; conditions: for Klebsiella pneumoniae MITC95: VIM-1 strain IHMA599644, with imipenem 1 μg/ml; for Klebsiella pneumoniae expressing VIM-1 (IHMA599644) MITC95: with imipenem 1 μg/ml
In short: as §3

[7] = fold difference between efflux+ (MB9798) and efflux− (MB9799) strains, imipenem at 2 μg/mL
[8] = fluorescence assay, read-out: VIM-1 IC50
[9] = ratio MITC95 PA_9798/MITC95 PA_9799
[10] = 95% inhibition of bacterial growth

IMP-1, sequence (P52699 whole entry, looked up, species assumed): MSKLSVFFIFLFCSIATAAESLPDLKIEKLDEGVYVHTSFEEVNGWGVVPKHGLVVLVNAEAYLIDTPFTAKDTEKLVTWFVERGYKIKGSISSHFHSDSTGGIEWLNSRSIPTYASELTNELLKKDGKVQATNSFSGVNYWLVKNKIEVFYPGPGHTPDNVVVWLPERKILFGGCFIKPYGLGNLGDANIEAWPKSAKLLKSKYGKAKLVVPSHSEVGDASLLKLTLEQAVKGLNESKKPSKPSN
NDM-1, sequence (C7C422 whole entry, looked up, species assumed): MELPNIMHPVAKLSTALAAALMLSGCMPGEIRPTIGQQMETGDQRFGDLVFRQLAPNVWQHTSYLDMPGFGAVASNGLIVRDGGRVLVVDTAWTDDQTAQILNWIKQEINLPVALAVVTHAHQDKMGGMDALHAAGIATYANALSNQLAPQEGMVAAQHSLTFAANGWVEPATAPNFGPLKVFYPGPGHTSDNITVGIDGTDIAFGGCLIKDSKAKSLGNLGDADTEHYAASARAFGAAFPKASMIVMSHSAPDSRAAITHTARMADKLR

| Structure (SMILES) | Concentration of metallo-β-lactamase inhibitor which restores susceptibility of efflux + (MB9798) strain to imipenem [1] | Efflux ratio [2, 7] | IC50 (VIM-1; VIM-1 IC50, fluorescence assay) [nM] | Concentration of metallo-β-lactamase inhibitor which restores susceptibility of efflux − (MB9799) strain to imipenem [3] | IC50 (IMP-1) [nM] | IC50 (NDM-1) [nM] | Escherichia coli MITC95 ([4]; 95% inhibition of growth) [µM] | Serratia marcescens MITC95 ([5]; 95% inhibition of growth) [µM] | Klebsiella pneumoniae MITC95 ([6]; 95% inhibition of growth) [µM] | IC50 (VIM-1; [8]) [nM] | P. aeruginosa expressing IMP-1, efflux + (MB9798) MITC95 [1] [µM] | Efflux ratio [2, 9] | P. aeruginosa expressing IMP-1, efflux − (MB9799) MITC95 [3] [µM] | Escherichia coli expressing NDM-1 (CLB30016) MITC95 [4, 10] [µM] | Serratia marcescens expressing IMP-1 (CL5741) MITC95 [5, 10] [µM] | Klebsiella pneumoniae expressing VIM-1 (IHMA599644) MITC95 [6, 10] [µM] | Escherichia coli MITC95 [4, 10] [µM] | Serratia marcescens MITC95 [5, 10] [µM] | Klebsiella pneumoniae MITC95 [6, 10] [µM] |
| --- | --- | --- | --- | --- | --- | --- | --- | --- | --- | --- | --- | --- | --- | --- | --- | --- | --- | --- | --- |
| C[C@H](N)Cc1nc2c(-c3ccc(S(N)(=O)=O)c(S(N)(=O)=O)c3-c3nn[nH]n3)cccc2[nH]1 [Example 442, (S)-4-(2-(2-aminopropyl)-1H-benzo[d]imidazol-4-yl)-3-(2H-tetrazol-5-yl)benzene-1,2-disulfonamide] | 0.7813 | 0.50 | 0.249 | 1.563 | 1.33 | 0.431 | 1.563 | 1.563 | 3.125 |  |  |  |  |  |  |  |  |  |  |
| C[C@@H](CN)NS(=O)(=O)c1ccc(-c2ccc(N)nc2)c(-c2nn[nH]n2)c1S(N)(=O)=O [Example 394] | 3.125 | 2.00 |  | 1.563 | 2 | 1.89 | 0.3906 | 1.563 | 3.125 | 1.24 |  |  |  |  |  |  |  |  |  |
| CN1CCCC(NS(=O)(=O)c2ccc(-c3cccc4sc(N)nc34)c(-c3nnn[nH]3)c2S(N)(=O)=O)C1 (stereo not drawn) [Example 18, 4-(2-amino-1,3-benzothiazol-4-yl)-N1-(1-methylpiperidin-3-yl)-3-(1H-tetrazol-5-yl)benzene-1,2-disulfonamide] |  |  |  |  | 0.268 | 0.0488 |  |  |  | 0.271 | 3.125 | 1.00 | 3.125 | 6.25 | 3.125 | 6.25 |  |  |  |
| Nc1nc2c(-c3ccc(S(=O)(=O)N[C@@H]4CN[C@@H](CO)C4)c(S(N)(=O)=O)c3-c3nnn[nH]3)cccc2[nH]1 [Example 174, 4-(2-amino-1H-benzo[d]imidazol-4-yl)-N^1-((3S,5R)-5-(hydroxymethyl)pyrrolidin-3-yl)-3-(1H-tetrazol-5-yl)benzene-1,2-disulfonamide] |  |  | 0.39 |  | 1.66 | 0.117 |  |  |  |  | 1.563 | 1.00 | 1.563 | 3.125 | 1.563 | 3.125 |  |  |  |
| NCCNc1cc(-c2ccc(S(=O)(=O)NCCN)c(S(N)(=O)=O)c2-c2nn[nH]n2)ccn1 [Example 456, N1-(2-Aminoethyl)-4-(2-((2-aminoethyl)amino)pyridin-4-yl)-3-(2H-tetrazol-5-yl)benzene-1,2-disulfonamide] | 1.563 | 2.00 |  | 0.7813 | 3.77 | 1.56 | 0.7813 | 0.7813 | 1.563 | 0.545 |  |  |  |  |  |  |  |  |  |
| CC(CN1CCOCC1)NS(=O)(=O)c1ccc(-c2cccc3sc(N)nc23)c(-c2nnn[nH]2)c1S(N)(=O)=O (stereo not drawn) [Example 51, 4-(2-amino-1,3-benzothiazol-4-yl)-N1-(1-methyl-2-morpholin-4-ylethyl)-3-(1H-tetrazol-5-yl)benzene-1,2-disulfonamide] |  |  |  |  | 0.393 | 0.097 |  |  |  | 0.441 | 25 | 4.00 | 6.25 | 25 | 12.5 | 25 |  |  |  |
| Nc1nc2c(-c3ccc(S(=O)(=O)NC[C@H]4CCNC4)c(S(N)(=O)=O)c3-c3nn[nH]n3)cccc2[nH]1 [Example 259, (S)-4-(2-amino-1H-benzo[d]imidazol-4-yl)-N1-(pyrrolidin-3-ylmethyl)-3-(2H-tetrazol-5-yl)benzene-1,2-disulfonamide] |  |  | 0.229 |  | 0.836 | 0.0555 | 0.3906 | 0.7813 | 1.563 |  | 0.7813 | 1.00 | 0.7813 |  |  |  |  |  |  |
| C[C@@H](N)c1nc2c(-c3ccc(S(=O)(=O)N[C@@H]4CCNC4)c(S(N)(=O)=O)c3-c3nn[nH]n3)cccc2[nH]1 [Example 273, 4-(2-((R)-1-aminoethyl)-1H-benzo[d]imidazol-4-yl)-N1-((R)-pyrrolidin-3-yl)-3-(2H-tetrazol-5-yl)benzene-1,2-disulfonamide] |  |  |  |  | 1.41 | 0.0565 | 1.563 | 1.563 | 1.563 | 0.124 | 0.7813 | 1.00 | 0.7813 |  |  |  |  |  |  |
| NCCN1CC[C@@H](NS(=O)(=O)c2ccc(-c3ccc(N)nc3)c(-c3nn[nH]n3)c2S(N)(=O)=O)C1 [Example 500, (R)—N1-(1-(2-aminoethyl)pyrrolidin-3-yl)-4-(6-aminopyridin-3-yl)-3-(2H-tetrazol-5-yl)benzene-1,2-disulfonamide] | 1.563 | 1.00 |  | 1.563 | 0.164 | 0.0347 |  |  |  | 0.071 |  |  |  |  |  |  | 1.563 | 1.563 | 3.125 |
| C[C@H](CN)NS(=O)(=O)c1ccc(-c2cccn3ccnc23)c(-c2nn[nH]n2)c1S(N)(=O)=O [Example 384, (R)—N1-(1-aminopropan-2-yl)-4-(imidazo[1,2-a]pyridin-8-yl)-3-(2H -tetrazol-5-yl) benzene-1,2-disulfonamide] |  |  |  |  | 0.0539 | 0.0233 | 1.563 | 3.125 | 3.125 | 0.0539 | 0.7813 | 0.50 | 1.563 |  |  |  |  |  |  |
